Source: paper PMC5816626, “A multitarget approach to drug discovery inhibiting Mycobacterium tuberculosis PyrG and PanK” (Scientific Reports, 2018)
≈ marks a conversion by molar mass, not a printed value. Entries after “also recorded” stand apart in the source; their conditions may differ.

Experiments:
M. tuberculosis H37Ra = assay: microbe, parasite or virus in culture; format: cell-based; details: Mycobacterium tuberculosis, read-out: Growth inhibition at harvest (OD600)
[1] = target: M. tuberculosis PanK wild type (Mycobacterium tuberculosis, UniProt P9WPA7); assay: biochemical
M. tuberculosis = system: M. tuberculosis; parameters: method as in PMID 26097035, PMID 28475832; details: known antitubercular activity; cited from earlier work
M. tuberculosis PyrG = system: M. tuberculosis PyrG; parameters: method as in PMID 26097035, PMID 28475832; details: previously identified PyrG inhibitors; cited from earlier work
M. tuberculosis H37Rv = assay: MIC against M. tuberculosis H37Rv (wild type); format: cell-based; details: Mycobacterium tuberculosis; strain H37Rv
human cell lines = system: human cell lines; parameters: method as in PMID 26097035; details: cited from earlier work
M. tuberculosis PanK = M. tuberculosis PanK (Mycobacterium tuberculosis, UniProt P9WPA7); assay: PanK activity during incubation with prodrug and EthA; format: biochemical; details: 8 hours of incubation with EthA and NADPH, compound 0.3 mM
Chain of M. tuberculosis PanK (P9WPA7 whole entry): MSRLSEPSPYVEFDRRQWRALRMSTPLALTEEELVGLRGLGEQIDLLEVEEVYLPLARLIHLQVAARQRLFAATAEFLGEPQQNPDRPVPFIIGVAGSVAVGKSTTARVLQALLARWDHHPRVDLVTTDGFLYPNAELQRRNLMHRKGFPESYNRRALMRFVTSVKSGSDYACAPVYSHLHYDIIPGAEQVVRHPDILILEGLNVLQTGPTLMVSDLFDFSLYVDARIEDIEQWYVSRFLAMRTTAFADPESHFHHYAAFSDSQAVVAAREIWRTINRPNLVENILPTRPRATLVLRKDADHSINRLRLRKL

Chain of M. tuberculosis PanK wild type (P9WPA7 whole entry): as above

Compound: C[C@H]1COC2(CCN(c3nc(=O)c4cc(C(F)(F)F)cc([N+](=O)[O-])c4s3)CC2)O1 [BTZ043, reference compound]
- inhibition at 0.2 µg/mL (M. tuberculosis H37Ra): 23%

Compound: O=C(CN1CCN(Cc2ccccc2)CC1)Nc1ccc([N+](=O)[O-])cc1C(=O)c1ccccc1 [CDD-823953, N-(2-benzoyl-4-nitrophenyl)-2-(4-benzylpiperazin-1-yl)acetamide]
- IC50 [1]: 250 µM
- MIC (M. tuberculosis): 4.39 µM (≈ 2.01 µg/mL)
- IC50 (M. tuberculosis PyrG): 80 µM

Compound: COc1ccc(-c2nnc(SCC(=O)Nc3ccc([N+](=O)[O-])cc3)o2)cc1 [CDD-934506, 2-((5-(4-methoxyphenyl)-1,3,4-oxadiazol-2-yl)sulfanyl)-N-(4-nitrophenyl)acetamide]
- IC50 [1]: 40 µM
- MIC (M. tuberculosis): 0.87 µM (≈ 0.336 µg/mL)
- PyrG IC50 (M. tuberculosis PyrG): inactive; also recorded: n. i

Compound: CCc1cc(C(N)=S)ccn1 [Ethionamide, reference compound]
- MIC (M. tuberculosis H37Rv): 1 µg/mL (≈ 6.02 µM)

Compound: c1ccc(-c2csc(Nc3nc4cc5c(cc4s3)OCO5)n2)nc1 [GSK735826A, N-(4-(pyridin-2-yl)thiazol-2-yl)-(1,3)dioxolo(4′,5′:4,5)benzo(1,2-d)thiazol-6-amine]
- IC50 [1]: 70 µM
- Ki ([1]; competitive inhibitor towards the ATP binding site): 65.3 ± 4.33 µM
- MIC (M. tuberculosis): 2.7 µM (≈ 0.957 µg/mL)
- IC50 (M. tuberculosis PyrG): 22 µM
- inhibition at 0.2 µg/mL (M. tuberculosis H37Ra): 66%

Compound: O=C(COc1cccc(F)c1)Nc1nc(-c2ccccn2)cs1 [GSK920684A, 2-(3-fluorophenoxy)-N-(4-(pyridin-2-yl)thiazol-2-yl)acetamide]
- PanK IC50 [1]: n. i.
- IC50 (M. tuberculosis PyrG): 22 µM
- inhibition at 0.2 µg/mL (M. tuberculosis H37Ra): 26%

Compound: O=C(Cc1ccc(F)cc1)Nc1nc(-c2ccccn2)cs1 [GSK1570606A, 2-(4-fluorophenyl)-N-(4-(pyridin-2-yl)thiazol-2-yl)acetamide]
- PanK IC50 [1]: n. i.
- MIC (M. tuberculosis): 9.3 µM (≈ 2.91 µg/mL)
- IC50 (M. tuberculosis PyrG): 4.2 µM
- inhibition at 0.2 µg/mL (M. tuberculosis H37Ra): 37%

Compound: O=C(CCc1ccccc1)NC(=S)Nc1ccc(N2CCCCC2)cc1 [compound 7904688, 3-phenyl-N-[(4-piperidin-1-ylphenyl)carbamothioyl]propanamide]
- toxicity against human cell lines (human cell lines): very low toxicity
- loss of PanK activity (M. tuberculosis PanK): more than 90%
- MIC (M. tuberculosis H37Rv): 0.5 µg/mL (≈ 1.36 µM)

Compound: Cc1ccc(C(=O)Nc2ccc([N+](=O)[O-])cc2)s1 [compound 7947882, 5-methyl-N-(4-nitrophenyl)thiophene-2-carboxamide]
- toxicity against human cell lines (human cell lines): very low toxicity
- loss of PanK activity (M. tuberculosis PanK): more than 90%
- MIC (M. tuberculosis H37Rv): 0.5 µg/mL (≈ 1.91 µM)

Compound: CC1=CC=C(C(=O)Nc2ccc([N+](=O)[O-])cc2)S1(=O)=O [compound 11426026]
- inhibition at 0.2 µg/mL (M. tuberculosis H37Ra): 83%
- MIC (M. tuberculosis H37Rv): 1 µg/mL (≈ 3.4 µM)
